Test results published in ChEMBL document CHEMBL4725287, “An in silico mechanistic insight into HDAC8 activation facilitates the discovery of new small-molecule activators” (Bioorg Med Chem, 2020).

What was measured:
[1] = biological target: T1, Histone deacetylase 8 (Homo sapiens) (UniProt Q9BY41); assay: Substrate-dependent activation of HDAC8 (unknown origin) assessed as fold activation using FLUOR DE LYS as substrate at 20 uM incubated for 30 mins by fluorescence based assay relative to control; conditions: filed as activator
T1 sequence (whole entry): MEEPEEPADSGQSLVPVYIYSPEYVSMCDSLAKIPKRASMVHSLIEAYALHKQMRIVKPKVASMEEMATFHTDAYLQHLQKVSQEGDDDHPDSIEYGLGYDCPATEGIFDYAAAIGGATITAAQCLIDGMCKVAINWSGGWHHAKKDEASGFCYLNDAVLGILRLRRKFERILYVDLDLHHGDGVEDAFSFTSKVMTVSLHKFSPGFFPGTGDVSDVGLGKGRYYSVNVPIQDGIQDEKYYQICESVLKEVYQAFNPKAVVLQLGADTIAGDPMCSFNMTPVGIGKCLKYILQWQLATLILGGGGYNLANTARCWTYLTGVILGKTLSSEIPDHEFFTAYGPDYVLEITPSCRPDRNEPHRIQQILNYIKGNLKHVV

Histone deacetylase 8 = biological target: T2, Histone deacetylase 8 (Homo sapiens, UniProt Q9BY41); assay: Substrate-dependent activation of HDAC8 (unknown origin) using FLUOR DE LYS as substrate incubated for 30 mins by fluorescence based assay
T2 sequence (Q9BY41 whole entry): T1 sequence (whole entry)

SMILES | fold change (FC) [1] | EC50 (Histone deacetylase 8)
Nc1ncccc1O | 1.3 | –
O=C(O)c1cccnc1S | 1.3 | –
Oc1ccccc1-c1nc2ccccc2s1 | 1.3 | –
Sc1nc2ccccc2o1 | 1.3 | –
Oc1cccc2cccnc12 [OXYQUINOLINE] | 1.3 | 11.1 µM
O=C(O)c1ccccc1S [THIOSALICYLIC ACID] | 1.3 | 16.9 µM
